Experimental findings from patent EP4800015A1, “AZABICYCLO DERIVATIVE AND PREPARATION METHOD THEREFOR, AND USE” (Zhejiang Hisun Pharmaceutical Co., Ltd., priority 2023, dated 2025) are described below.

Each structure is given as a SMILES string.

T1 sequence (Q14191 whole entry): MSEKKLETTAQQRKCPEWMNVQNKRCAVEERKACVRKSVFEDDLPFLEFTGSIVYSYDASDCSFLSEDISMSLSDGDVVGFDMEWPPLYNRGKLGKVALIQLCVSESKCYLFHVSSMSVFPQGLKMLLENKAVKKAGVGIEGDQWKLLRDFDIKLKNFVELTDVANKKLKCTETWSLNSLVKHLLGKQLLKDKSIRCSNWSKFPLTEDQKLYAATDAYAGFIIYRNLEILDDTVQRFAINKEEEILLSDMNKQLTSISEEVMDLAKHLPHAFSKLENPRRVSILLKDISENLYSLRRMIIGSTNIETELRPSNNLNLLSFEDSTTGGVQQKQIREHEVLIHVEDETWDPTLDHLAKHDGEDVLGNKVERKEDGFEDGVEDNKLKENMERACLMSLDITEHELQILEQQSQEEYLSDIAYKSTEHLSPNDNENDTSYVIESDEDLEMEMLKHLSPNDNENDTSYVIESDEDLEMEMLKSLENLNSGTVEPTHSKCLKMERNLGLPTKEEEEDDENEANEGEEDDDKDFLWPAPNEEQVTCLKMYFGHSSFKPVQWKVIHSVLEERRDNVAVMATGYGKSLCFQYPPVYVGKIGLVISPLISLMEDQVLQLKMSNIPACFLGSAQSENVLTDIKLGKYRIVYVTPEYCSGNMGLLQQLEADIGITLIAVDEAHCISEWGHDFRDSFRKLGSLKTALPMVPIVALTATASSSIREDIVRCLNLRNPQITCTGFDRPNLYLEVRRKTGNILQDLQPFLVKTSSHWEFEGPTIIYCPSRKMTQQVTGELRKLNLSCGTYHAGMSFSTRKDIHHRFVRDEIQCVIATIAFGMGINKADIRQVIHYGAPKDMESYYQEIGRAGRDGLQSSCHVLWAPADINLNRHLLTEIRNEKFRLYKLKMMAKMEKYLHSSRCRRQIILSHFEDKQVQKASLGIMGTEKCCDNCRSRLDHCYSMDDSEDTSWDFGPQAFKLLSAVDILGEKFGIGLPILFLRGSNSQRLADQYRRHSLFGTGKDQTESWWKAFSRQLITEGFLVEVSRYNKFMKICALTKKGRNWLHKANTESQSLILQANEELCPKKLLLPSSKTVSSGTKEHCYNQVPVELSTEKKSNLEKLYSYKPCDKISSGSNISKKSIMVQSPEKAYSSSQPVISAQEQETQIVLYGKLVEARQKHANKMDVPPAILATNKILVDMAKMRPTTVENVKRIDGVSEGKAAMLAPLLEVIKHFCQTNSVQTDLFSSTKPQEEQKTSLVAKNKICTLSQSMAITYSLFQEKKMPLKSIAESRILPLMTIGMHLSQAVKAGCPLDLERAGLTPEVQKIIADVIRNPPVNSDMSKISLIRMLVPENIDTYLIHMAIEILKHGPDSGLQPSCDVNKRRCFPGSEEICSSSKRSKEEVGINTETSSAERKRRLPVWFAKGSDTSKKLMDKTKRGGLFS

The first test addresses T1, recombinant human WRN (Homo sapiens, UniProt Q14191).
T1 construct: purchased BPS 101264
In words: Inhibition of WRN enzyme activity (ATPase), ADP-Glo Kinase Assay. To be noted: WRN protein 5 nM, Flap 0.1 nM, ATP 30 µM. In kind it is biochemical. An excerpt:
The following method was used to determine the degree of inhibition of recombinant human WRN ATPase activity by the compounds of the present disclosure in vitro. In this method, ADP-Glo™ Kinase Assay kit (catalog No. V9102) from Promega was used. Detailed experimental procedures can be found in the kit manual.
The experimental procedure was briefly described as follows: test compounds were first dissolved in DMSO to prepare stock solutions, followed by serial dilution using reaction buffer (30 mM Tris, pH 7.5, 2 mM MgCl2, 50 mM NaCl, 0.02% BSA, 0.1% Pluronic F127), with final concentrations of test compounds in the reaction system ranging from 1000 nM to 0.004 nM; WRN protein (purchased from BPS, catalog No. 101264), substrate 5-flap oligonucleotide (Flap26) (synthesized by Shanghai Generay Biotech Co., Ltd., sequence 5'-[…]-3'), and ATP working solution (from ADP-Glo™ Kinase Assay kit component V915A) were prepared using reaction buffer. Reactions were performed in 384-well microplates. At first the compounds and recombinant human WRN protein (final concentration 5 nM) were added to the wells and the plate was incubated at room temperature for 15 minutes, then Flap solution (final concentration 0.1 nM) and ATP solution (final concentration 30 µM) were added to the reaction solution and the plate was incubated at room temperature for 10 minutes. Subsequently, 5 µL of ADP-Glo Reagent was added to the reaction system and incubated at room temperature for 40 minutes. Then 10 µL of Kinase Detection Reagent was added to the reaction system and incubated at room temperature for 30 minutes. After the incubation was completed, chemiluminescence intensity values of each well were measured using a microplate reader in luminescence mode. The percentage inhibition of the compounds at each concentration was calculated by comparison with the luminescence intensity values of the control group (0.1% DMSO), and IC50 values of compounds were obtained by nonlinear regression analysis of compound concentration logarithm-inhibition rate using GraphPad Prism 9 software, as shown in Table 1.
The IC50 value results of the compounds of the present disclosure are expressed as AA and A, respectively as follows: "AA" indicates IC50 ≤ 1 nM; "A" indicates 1 nM < IC50 ≤ 100 nM. Table 1 IC50 of the compounds of the present disclosure for inhibiting WRN enzyme activity (ATPase)
For orientation: ADP-Glo turns the ADP formed in a reaction into a luminescent signal.
A word on the IC50: it is the point on the concentration scale where inhibition reaches its midpoint. For `C=C(c1ccc(OC)cc1)c1nc2n(CC(=O)Nc3ccc(C(F)(F)F)cc3Cl)c(CC)c(N3CCN(C(=O)c4ncnc(C)c4O)CC3)c(=O)n2n1` [Example 83, N-(2-chloro-4-(trifluoromethyl)phenyl)-2-(5-ethyl-6-(4-(5-hydroxy-6-methylpyrimidine-4-carbonyl)piperazin-1-yl)-2-(1-(4-methoxyphenyl)vinyl)-7-oxo-[1,2,4]triazolo[1,5-a]pyrimidin-4(7H)-yl) acetamide], the IC50 is 1 to 100 nM.

The same test, now with this note: WRN protein 5 nM, Flap 0.1 nM, ATP 30 µM; read-out: IC50.
Turning to `CCc1c(N2CCN(C(=O)c3ncccc3O)CC2)c(=O)n2nc(C3=CC4CC(=O)CC4C3)cc2n1CC(=O)Nc1ccc(C(F)(F)F)cc1Cl` (stereo not drawn) [Example 56, N-(2-chloro-4-(trifluoromethyl)phenyl)-2-(5-ethyl-6-(4-(3-hydroxypicolinoyl)piperazin-1-yl)-7-oxo-2-(5-oxo-1,3a,4,5,6,6a-hexahydropentalen-2-yl)pyrazolo[1,5-a]pyrimidin-4(7H)-yl)acetamide], the IC50 lay in the range of 1 to 100 nM.
Still for that read-out and setting: the result for `CCc1c(N2CCN(C(=O)c3ncnc(C)c3O)CC2)c(=O)n2nc(-c3ccc4ccoc4c3)cc2n1CC(=O)Nc1ccc(C(F)(F)F)cc1Cl` [Example 57, 2-(2-(benzofuran-6-yl)-5-ethyl-6-(4-(5-hydroxy-6-methylpyrimidine-4-carbonyl)piperazin-1-yl)-7-oxopyrazolo[1,5-a]pyrimidin-4(7H)-yl)-N-(2-chloro-4-(trifluoromethyl)phenyl)acetamide] reads 1 to 100 nM.
On the same count and under the same terms, the result for `CCc1c(N2CCN(C(=O)c3ncnc(C)c3O)CC2)c(=O)n2nc(-c3ccc4c(c3)OCC4)nc2n1CC(=O)Nc1ccc(S(F)(F)(F)(F)F)cc1` [Example 58, 2-(2-(2,3-dihydrobenzofuran-6-yl)-5-ethyl-6-(4-(5-hydroxy-6-methylpyrimidine-4-carbonyl)piperazin-1-yl)-7-oxo-[1,2,4]triazolo[1,5-a]pyrimidin-4(7H)-yl)-N-(4-(pentafluoro-λ^6-sulfaneyl)phenyl)acetamide] reads 1 to 100 nM; that for `CCc1c(N2CCN(C(=O)c3ncnc(C)c3O)CC2)c(=O)n2nc(C3=CCCCCC3)cc2n1CC(=O)Nc1ccc(S(F)(F)(F)(F)F)cc1` [Example 59, 2-(2-(cyclohept-1-en-1-yl)-5-ethyl-6-(4-(5-hydroxy-6-methylpyrimidine-4-carbonyl)piperazin-1-yl)-7-oxopyrazolo[1,5-a]pyrimidin-4(7H)-yl)-N-(4-(pentafluoro-λ^6-sulfaneyl)phenyl)acetamide], 1 to 100 nM; that for `CCc1c(N2CCN(C(=O)c3ncnc(C)c3O)CC2)c(=O)n2nc(C(C)=C3CCC3)nc2n1CC(=O)Nc1ccc(C(F)(F)F)cc1Cl` [Example 60, N-(2-chloro-4-(trifluoromethyl)phenyl)-2-(2-(1-cyclobutylideneethyl)-5-ethyl-6-(4-(5-hydroxy-6-methylpyrimidine-4-carbonyl)piperazin-1-yl)-7-oxo-[1,2,4]triazolo[1,5-a]pyrimidin-4(7H)-yl)ace tamide], 1 to 100 nM.
With `CCc1c(N2CCN(C(=O)c3ncnc(C)c3O)CC2)c(=O)n2nc(C(C)=C3CCC3)nc2n1CC(=O)Nc1ccc(S(F)(F)(F)(F)F)cc1` [Example 61, 2-(2-(1-cyclobutylideneethyl)-5-ethyl-6-(4-(5-hydroxy-6-methylpyrimidine-4-carbonyl)piperazin-1-yl)-7-oxo-[1,2,4]triazolo[1,5-a]pyrimidin-4(7H)-yl)-N-(4-(pentafluoro-λ^6-sulfaneyl)phenyl)ace tamide], the IC50 is 1 to 100 nM.
`CCc1c(N2CCN(C(=O)c3ncnc(C)c3O)CC2)c(=O)n2nc(C3=CCC4(CC3)CC4)nc2n1CC(=O)Nc1ccc(C(F)(F)F)cc1Cl` [Example 64, N-(2-Chloro-4-(trifluoromethyl)phenyl)-2-(5-ethyl-6-(4-(5-hydroxy-6-methylpyrimidine-4-carbonyl)piperazin-1-yl)-7-oxo-2-(spiro[2.5]oct-5-en-6-yl)-[1,2,4]triazolo[1,5-a]pyrimidin-4(7H)-yl)ac etamide]: the IC50 fell in the range of 1 to 100 nM.
Consider `CCc1c(N2CCN(C(=O)c3ncccc3O)CC2)c(=O)n2nc(C3=Cc4ccccc4C3)nc2n1CC(=O)Nc1ccc(C(F)(F)F)cc1Cl` [Example 72, N-(2-chloro-4-(trifluoromethyl)phenyl)-2-(5-ethyl-6-(4-(3-hydroxypicolinoyl)piperazin-1-yl)-2-(1H-inden-2-yl)-7-oxo-[1,2,4]triazolo[1,5-a]pyrimidin-4(7H)-yl)acetamide], for which the IC50 is 1 to 100 nM.
For the compound `CCc1c(N2CCN(C(=O)c3ncccc3O)CC2)c(=O)n2nc(-c3cc4ccccc4o3)nc2n1CC(=O)Nc1ccc(C(F)(F)F)cc1Cl` [Example 75, 2-(2-(benzofuran-2-yl)-5-ethyl-6-(4-(3-hydroxypicolinoyl)piperazin-1-yl)-7-oxo-[1,2,4]triazolo[1 ,5-a]pyrimidin-4(7H)-yl)-N-(2-chloro-4-(trifluoromethyl)phenyl)acetamide], the IC50 was in the range of 1 to 100 nM.
Consider `CCc1c(N2CCN(C(=O)c3ncccc3O)CC2)c(=O)n2nc(-c3ccc4ccoc4c3)nc2n1CC(=O)Nc1ccc(S(F)(F)(F)(F)F)cc1` [Example 78, 2-(2-(benzofuran-6-yl)-5-ethyl-6-(4-(3-hydroxypicolinoyl)piperazin-1-yl)-7-oxo-[1,2,4]triazolo[1 ,5-a]pyrimidin-4(7H)-yl)-N-(4-(pentafluoro-λ^6-sulfaneyl)phenyl)acetamide], for which the IC50 lay within 1 to 100 nM.
The same measure, in the same setting: the result for `CCc1c(N2CCN(C(=O)c3ncccc3O)CC2)c(=O)n2nc(-c3cc4ccccc4s3)nc2n1CC(=O)Nc1ccc(C(F)(F)F)cc1Cl` [Example 79, 2-(2-(benzo[b]thiophen-2-yl)-5-ethyl-6-(4-(3-hydroxypicolinoyl)piperazin-1-yl)-7-oxo-[1,2,4]triazolo[1,5-a]pyrimidin-4(7H)-yl)-N-(2-chloro-4-(trifluoromethyl)phenyl)acetamide] reads 1 to 100 nM; that for `CCc1c(N2CCN(C(=O)c3ncnc(C)c3O)CC2)c(=O)n2nc(-c3ccc4c(c3)OCC4)nc2n1CC(=O)Nc1ccc(C(F)(F)F)cc1Cl` [Example 81, N-(2-chloro-4-(trifluoromethyl)phenyl)-2-(2-(2,3-dihydrobenzofuran-6-yl)-5-ethyl-6-(4-(5-hydroxy-6-methylpyrimidine-4-carbonyl)piperazin-1-yl)-7-oxo-[1,2,4]triazolo[1,5-a]pyrimidin-4(7H)-yl)acetamide], 1 to 100 nM; that for `CCc1c(N2CCN(C(=O)c3ncnc(C)c3O)CC2)c(=O)n2nc(-c3ccc4c(c3)CCO4)cc2n1CC(=O)Nc1ccc(C(F)(F)F)cc1Cl` [Example 82, N-(2-chloro-4-(trifluoromethyl)phenyl)-2-(2-(2,3-dihydrobenzofuran-5-yl)-5-ethyl-6-(4-(5-hydroxy-6-methylpyrimidine-4-carbonyl)piperazin-1-yl)-7-oxopyrazolo[1,5-a]pyrimidin-4(7H)-yl)acet amide], 1 to 100 nM.
Still for that read-out and setting: with `CCc1c(N2CCN(C(=O)c3ncnc(C)c3O)CC2)c(=O)n2nc(-c3ccc4ccoc4c3)nc2n1CC(=O)Nc1ccc(SC(F)(F)F)cc1` [Example 90, 2-(2-(benzofuran-6-yl)-5-ethyl-6-(4-(5-hydroxy-6-methylpyrimidine-4-carbonyl)piperazin-1-yl)-7-oxo-[1,2,4]triazolo[1,5-a]pyrimidin-4(7H)-yl)-N-(4-((trifluoromethyl)thio)phenyl)acetamide] the figure was 1 to 100 nM; with `CCc1c(C2CCN(C(=O)c3ncnc(C)c3O)CC2)c(=O)n2nc(C3=CCCCCC3)nc2n1CC(=O)Nc1ccc(S(F)(F)(F)(F)F)cc1` [Example 92, 2-(2-(cyclohept-1-en-1-yl)-5-ethyl-6-(1-(5-hydroxy-6-methylpyrimidine-4-carbonyl)piperidin-4-yl)-7-oxo-[1,2,4]triazolo[1,5-a]pyrimidin-4(7H)-yl)-N-(4-(pentafluoro-λ^6-sulfaneyl)phenyl)acetamide], 1 to 100 nM; with `CCc1c(N2CCCN(C(=O)c3ncnc(C)c3O)CC2)c(=O)n2nc(C3=CCCCCC3)nc2n1CC(=O)Nc1ccc(S(F)(F)(F)(F)F)cc1` [Example 94, 2-(2-(cyclohept-1-en-1-yl)-5-ethyl-6-(4-(5-hydroxy-6-methylpyrimidine-4-carbonyl)-1,4-diazepan-1-yl)-7-oxo-[1,2,4]triazolo[1,5-a]pyrimidin-4(7H)-yl)-N-(4-(pentafluoro-λ^6-sulfaneyl)phenyl)a cetamide], 1 to 100 nM.
The same measure, in the same setting: with `CCc1c(N2CCN(C(=O)c3ncnc(C)c3O)CC2)c(=O)n2nc(C3=CCCCCC3)nc2n1CC(=O)Nc1ccc(OC(F)(F)F)cc1` [Example 95, 2-(2-(cyclohept-1-en-1-yl)-5-ethyl-6-(4-(5-hydroxy-6-methylpyrimidine-4-carbonyl)piperazin-1-yl)-7-oxo-[1,2,4]triazolo[1,5-a]pyrimidin-4(7H)-yl)-N-(4-(trifluoromethoxy)phenyl)acetamide] the figure was less than 1 nM.
